Data: patent publication US20230285441A1, “TREATMENT OF C[…] AURANOFIN” (GEORGIA STATE UNIVERSITY RESEARCH FOUNDATION, INC., priority 2020, published 2023)

Key:
Huh7 cells = conditions: 0.1-10 µM for 48 hours, trypan blue
[1] = tested on: IL-6, IL-1β, TNFα and NF-kB; assay: mRNA expression of SARS-CoV-2-induced cytokines in Huh7 cells by qRT-PCR; format: cell-based, human
[2] = tested on: SARS-CoV-2 (USA-WA1/2020); assay: SARS-CoV-2 infectivity titers in cell culture supernatants by plaque assay; format: cell-based; conditions: 4 µM auranofin, Huh7 cells, 48 hours after infection
[3] = 4 µM auranofin, SARS-CoV-2 infected Huh7 cells

Structure (SMILES): CC[P](CC)(CC)=[Au][S][C@@H]1OC(COC(C)=O)[C@@H](OC(C)=O)C(OC(C)=O)C1OC(C)=O (stereo partly drawn) [auranofin, 1-Thio-β-D-glucopyranosatotriethylphosphine gold-2,3,4,6-tetraacetate]
- cytotoxic concentration of 50% (Huh7 cells): approximately 5.7 µM
- increase in TNF-α levels (mRNA) [1]: absent
- increase in the expression of IL-1β (mRNA) [1, 3]: no increase
- increase in the expression of NF-kB (mRNA) [1, 3]: no increase
- SARS-COV-2 infectivity titers in cell culture supernatants [2]: significantly reduced
